# Patent US6770597B2, “Benzohydrazide derivatives as herbicides and desiccant compositions containing them” (Ishihara Sangyo Kaisha, Ltd., priority 2002, dated 2004)
# Tests used:
# Type in all cases: in vivo
# [1] = tested on: velvetleaf (Abutilon theophrasti, ABUTH); experiment: Greenhouse herbicide screen, pre-emerge application, phytotoxicity rating; settings: PRE emergent, 14 days after application, rating scale 0-100
# Summary of the method: (§1)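 Acetone-dissolved compounds are sprayed over pots at 15 to 1000 g ai/ha with a flat fan nozzle 40–45 cm above the target. Pre-emerge pots are top-watered immediately to incorporate; post-emerge pots are bottom-watered. Plants are rated 0–100 after 14 days.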
# [2] = tested on: sicklepod (Cassia obtusifolia, CASOB); experiment: as above; settings: PRE emergent, 14 days after application, rating scale 0-100
# Summary of the method: as §1
# [3] = tested on: green foxtail (Setaria viridis, SETVI); experiment: as above; settings: PRE emergent, 14 days after application, rating scale 0-100
# Summary of the method: as §1
# [4] = tested on: common ragweed (Ambrosia artemisiifolia L., AMBEL); experiment: as above; settings: PRE emergent, 14 days after application, rating scale 0-100
# Summary of the method: as §1
# [5] = tested on: lambsquarters (Chenopodium album, CHEAL); experiment: as above; settings: PRE emergent, 14 days after application, rating scale 0-100
# Summary of the method: as §1
# [6] = tested on: johnsongrass (Sorghum halepense, SORHA); experiment: as above; settings: PRE emergent, 14 days after application, rating scale 0-100
# Summary of the method: as §1
# [7] = tested on: redroot pigweed (Amaranthus retrofiexus, AMARE); experiment: as above; settings: PRE emergent, 14 days after application, rating scale 0-100
# Summary of the method: as §1
# [8] = tested on: ivyleaf morningglory (Ipomoea hederacea, IPOHE); experiment: as above; settings: PRE emergent, 14 days after application, rating scale 0-100
# Summary of the method: as §1
# [9] = tested on: cocklebur (Xanthium strumarium, XANST); experiment: as above; settings: PRE emergent, 14 days after application, rating scale 0-100
# Summary of the method: as §1
# [10] = tested on: large crabgrass (Digitaria sanguinalis, DIGSA); experiment: as above; settings: PRE emergent, 14 days after application, rating scale 0-100
# Summary of the method: as §1
# [11] = tested on: barnyardgrass (Echinochloa crus-galli, ECHCG); experiment: as above; settings: PRE emergent, 14 days after application, rating scale 0-100
# Summary of the method: as §1
# [12] = tested on: upland rice (Oryza sp., var.Cocodrie, RICE); experiment: Greenhouse herbicide screen, post-emerge application, crop damage rating; settings: POST emergent, 14 days after application, scale 0-100
# Summary of the method: as §1
# [13] = tested on: field corn (Zea mays L., var. Dekalb 535, CORN); experiment: as above; settings: POST emergent, 14 days after application, scale 0-100
# Summary of the method: as §1
# [14] = tested on: velvetleaf (Abutilon theophrasti, ABUTH); experiment: Greenhouse herbicide screen, post-emerge application, phytotoxicity rating; settings: POST emergent, 14 days after application, scale 0-100
# Summary of the method: as §1
# [15] = tested on: sicklepod (Cassia obtusifolia, CASOB); experiment: as above; settings: POST emergent, 14 days after application, scale 0-100
# Summary of the method: as §1
# [16] = tested on: green foxtail (Setaria viridis, SETVI); experiment: as above; settings: POST emergent, 14 days after application, scale 0-100
# Summary of the method: as §1
# [17] = tested on: common ragweed (Ambrosia artemisiifolia L., AMBEL); experiment: as above; settings: POST emergent, 14 days after application, scale 0-100
# Summary of the method: as §1
# [18] = tested on: lambsquarters (Chenopodium album, CHEAL); experiment: as above; settings: POST emergent, 14 days after application, scale 0-100
# Summary of the method: as §1
# [19] = tested on: johnsongrass (Sorghum halepense, SORHA); experiment: as above; settings: POST emergent, 14 days after application, scale 0-100
# Summary of the method: as §1
# [20] = tested on: redroot pigweed (Amaranthus retrofiexus, AMARE); experiment: as above; settings: POST emergent, 14 days after application
# Summary of the method: as §1
# [21] = tested on: ivyleaf morningglory (Ipomoea hederacea, IPOHE); experiment: as above; settings: POST emergent, 14 days after application, scale 0-100
# Summary of the method: as §1
# [22] = tested on: cocklebur (Xanthium strumarium, XANST); experiment: as above; settings: POST emergent, 14 days after application, scale 0-100
# Summary of the method: as §1
# [23] = tested on: large crabgrass (Digitaria sanguinalis, DIGSA); experiment: as above; settings: POST emergent, 14 days after application, scale 0-100
# Summary of the method: as §1
# [24] = tested on: barnyardgrass (Echinochloa crus-galli, ECHCG); experiment: as above; settings: POST emergent, 14 days after application, scale 0-100
# Summary of the method: as §1
# [25] = tested on: upland rice (Oryza sp., var.Cocodrie, RICE); experiment: Greenhouse herbicide screen, pre-emerge application, crop damage rating; settings: PRE emergent, 14 days after application, rating scale 0-100
# Summary of the method: as §1
# [26] = tested on: field corn (Zea mays L., var. Dekalb 535, CORN); experiment: as above; settings: PRE emergent, 14 days after application, rating scale 0-100
# Summary of the method: as §1
# [27] = 63 g ai/ha, scale 0-100 (0 no damage, 100 complete death)
compound,measurement,setting,value
CC(=O)OC(=NN(C)C)c1cc(-n2c(=O)cc(C(F)(F)F)n(C)c2=O)ccc1Cl [Compound 4-4],phytotoxicity rating ABUTH,[1]; 63 g ai/ha,100
same,phytotoxicity rating ABUTH,[1]; 250 g ai/ha,100
same,phytotoxicity rating CASOB,[2]; 63 g ai/ha,65
same,phytotoxicity rating CASOB,[2]; 250 g ai/ha,98
same,phytotoxicity rating SETVI,[3]; 63 g ai/ha,50
same,phytotoxicity rating SETVI,[3]; 250 g ai/ha,90
same,phytotoxicity rating AMBEL,[4]; 63 g ai/ha,75
same,phytotoxicity rating AMBEL,[4]; 250 g ai/ha,100
same,phytotoxicity rating CHEAL,[5]; 63 g ai/ha,100
same,phytotoxicity rating CHEAL,[5]; 250 g ai/ha,100
same,phytotoxicity rating SORHA,[6]; 63 g ai/ha,60
same,phytotoxicity rating SORHA,[6]; 250 g ai/ha,90
same,phytotoxicity rating AMARE,[7]; 63 g ai/ha,100
same,phytotoxicity rating AMARE,[7]; 250 g ai/ha,100
same,phytotoxicity rating IPOHE,[8]; 63 g ai/ha,100
same,phytotoxicity rating IPOHE,[8]; 250 g ai/ha,100
same,phytotoxicity rating XANST,[9]; 63 g ai/ha,0
same,phytotoxicity rating XANST,[9]; 250 g ai/ha,60
same,phytotoxicity rating DIGSA,[10]; 63 g ai/ha,98
same,phytotoxicity rating DIGSA,[10]; 250 g ai/ha,100
same,phytotoxicity rating ECHCG,[11]; 63 g ai/ha,30
same,phytotoxicity rating ECHCG,[11]; 250 g ai/ha,90
same,crop damage rating RICE,[12]; 63 g ai/ha,10
same,crop damage rating RICE,[12]; 250 g ai/ha,55
same,crop damage rating CORN,[13]; 63 g ai/ha,25
same,crop damage rating CORN,[13]; 250 g ai/ha,90
same,phytotoxicity rating ABUTH,[14]; 63 g ai/ha,100
same,phytotoxicity rating ABUTH,[14]; 250 g ai/ha,100
same,phytotoxicity rating CASOB,[15]; 63 g ai/ha,65
same,phytotoxicity rating CASOB,[15]; 250 g ai/ha,98
same,phytotoxicity rating SETVI,[16]; 63 g ai/ha,50
same,phytotoxicity rating SETVI,[16]; 250 g ai/ha,90
same,phytotoxicity rating AMBEL,[17]; 63 g ai/ha,75
same,phytotoxicity rating AMBEL,[17]; 250 g ai/ha,100
same,phytotoxicity rating CHEAL,[18]; 63 g ai/ha,100
same,phytotoxicity rating CHEAL,[18]; 250 g ai/ha,100
same,phytotoxicity rating SORHA,[19]; 63 g ai/ha,60
same,phytotoxicity rating SORHA,[19]; 250 g ai/ha,90
same,phytotoxicity rating AMARE,[20]; [27],100
same,phytotoxicity rating AMARE,"[20]; 250 g ai/ha, scale 0-100",100
same,phytotoxicity rating IPOHE,[21]; 63 g ai/ha,100
same,phytotoxicity rating IPOHE,[21]; 250 g ai/ha,100
same,phytotoxicity rating XANST,[22]; 63 g ai/ha,0
same,phytotoxicity rating XANST,[22]; 250 g ai/ha,60
same,phytotoxicity rating DIGSA,[23]; 63 g ai/ha,98
same,phytotoxicity rating DIGSA,[23]; 250 g ai/ha,100
same,phytotoxicity rating ECHCO,[24]; 63 g ai/ha,30
same,phytotoxicity rating ECHCO,[24]; 250 g ai/ha,90
same,crop damage rating RICE,[25]; 63 g ai/ha,10
same,crop damage rating RICE,[25]; 250 g ai/ha,55
same,crop damage rating CORN,[26]; 63 g ai/ha,25
same,crop damage rating CORN,[26]; 250 g ai/ha,90
CC1CCCC(C)N1N=C(OC(=O)C(Cl)Cl)c1cc(-n2c(=O)cc(C(F)(F)F)n(C)c2=O)c(F)cc1Cl (centres unmarked) [Compound 4-8],phytotoxicity rating ABUTH,[1]; 63 g ai/ha,100
same,phytotoxicity rating ABUTH,[1]; 250 g ai/ha,100
same,phytotoxicity rating CASOB,[2]; 63 g ai/ha,60
same,phytotoxicity rating CASOB,[2]; 250 g ai/ha,90
same,phytotoxicity rating SETVI,[3]; 63 g ai/ha,65
same,phytotoxicity rating SETVI,[3]; 250 g ai/ha,100
same,phytotoxicity rating AMBEL,[4]; 63 g ai/ha,60
same,phytotoxicity rating AMBEL,[4]; 250 g ai/ha,99
same,phytotoxicity rating CHEAL,[5]; 63 g ai/ha,100
same,phytotoxicity rating CHEAL,[5]; 250 g ai/ha,100
same,phytotoxicity rating SORHA,[6]; 63 g ai/ha,0
same,phytotoxicity rating SORHA,[6]; 250 g ai/ha,80
same,phytotoxicity rating AMARE,[7]; 63 g ai/ha,100
same,phytotoxicity rating AMARE,[7]; 250 g ai/ha,100
same,phytotoxicity rating IPOHE,[8]; 63 g ai/ha,95
same,phytotoxicity rating IPOHE,[8]; 250 g ai/ha,100
same,phytotoxicity rating XANST,[9]; 63 g ai/ha,30
same,phytotoxicity rating XANST,[9]; 250 g ai/ha,60
same,phytotoxicity rating DIGSA,[10]; 63 g ai/ha,50
same,phytotoxicity rating DIGSA,[10]; 250 g ai/ha,99
same,phytotoxicity rating ECHCG,[11]; 63 g ai/ha,0
same,phytotoxicity rating ECHCG,[11]; 250 g ai/ha,15
same,crop damage rating RICE,[12]; 63 g ai/ha,0
same,crop damage rating RICE,[12]; 250 g ai/ha,15
same,crop damage rating CORN,[13]; 63 g ai/ha,90
same,crop damage rating CORN,[13]; 250 g ai/ha,100
same,phytotoxicity rating ABUTH,[14]; 63 g ai/ha,100
same,phytotoxicity rating ABUTH,[14]; 250 g ai/ha,100
same,phytotoxicity rating CASOB,[15]; 63 g ai/ha,70
same,phytotoxicity rating CASOB,[15]; 250 g ai/ha,75
same,phytotoxicity rating SETVI,[16]; 63 g ai/ha,15
same,phytotoxicity rating SETVI,[16]; 250 g ai/ha,60
same,phytotoxicity rating AMBEL,[17]; 63 g ai/ha,80
same,phytotoxicity rating AMBEL,[17]; 250 g ai/ha,100
same,phytotoxicity rating CHEAL,[18]; 63 g ai/ha,100
same,phytotoxicity rating CHEAL,[18]; 250 g ai/ha,100
same,phytotoxicity rating SORHA,[19]; 63 g ai/ha,10
same,phytotoxicity rating SORHA,[19]; 250 g ai/ha,65
same,phytotoxicity rating AMARE,[20]; [27],100
same,phytotoxicity rating AMARE,"[20]; 250 g ai/ha, scale 0-100",100
same,phytotoxicity rating IPOHE,[21]; 63 g ai/ha,100
same,phytotoxicity rating IPOHE,[21]; 250 g ai/ha,100
same,phytotoxicity rating XANST,[22]; 63 g ai/ha,100
same,phytotoxicity rating XANST,[22]; 250 g ai/ha,100
same,phytotoxicity rating DIGSA,[23]; 63 g ai/ha,0
same,phytotoxicity rating DIGSA,[23]; 250 g ai/ha,75
same,phytotoxicity rating ECHCO,[24]; 63 g ai/ha,70
same,phytotoxicity rating ECHCO,[24]; 250 g ai/ha,90
same,crop damage rating RICE,[25]; 63 g ai/ha,0
same,crop damage rating RICE,[25]; 250 g ai/ha,0
same,crop damage rating CORN,[26]; 63 g ai/ha,0
same,crop damage rating CORN,[26]; 250 g ai/ha,50
